According to patent publication US9801901B2, “Alginate oligomers for use in overcoming multidrug resistance in bacteria” (priority 2009, dated 2017):
Like-named read-outs stand apart in the source and are kept apart here. Marks after values point to notes of the source that are not given here.

Tests used:
[1] = tested on: PA01 Pseudomonas aeruginosa ATCC 15692; assay: MIC assay, two-fold antibiotic dilutions in CAMHB with alginate oligomer, no visible growth; type: cell-based; details: PA01
[2] = tested on: Pseudomonas aeruginosa ATCC 39324, mucoid type strain (R79); assay: MIC assay, CAMHB with alginate oligomer, no visible growth; type: cell-based; details: R79
[3] = tested on: Pseudomonas aeruginosa CFA 24-1, clinical mucoid strain (R80); assay: as above; type: cell-based; details: R80
[4] = tested on: Pseudomonas aeruginosa MDR R22 from China (V1); assay: as above; type: cell-based; details: V1 MDR R22 PA
From the text: The study described in Example 1 was repeated with the following strains of bacteria and antibiotics as detailed in Tables 4, 5 and 6.

[5] = tested on: Klebsiella pneumoniae KP05 506 from India (V3); assay: as above; type: cell-based; details: for MIC: V3 KP05 506
[6] = tested on: V9 (Egypt) Acinetobacter baumannii; assay: as above; type: cell-based; details: Table 5, V9 MDR Acin. baum
[7] = tested on: V12 5725 (Wales) Klebsiella pneumoniae; assay: as above; type: cell-based; details: Table 5, V12 MDR Kleb pneu
[8] = tested on: V23 1322 Burkholderia cepacia; assay: as above; type: cell-based
[9] = tested on: V19 non MDR Acinetobacter baumannii; assay: MIC assay, CAMHB with M-block alginate oligomer, no visible growth; type: cell-based; details: Table 7, V19 non MDR Acin. baum
From the text: The study described in Example 1 was repeated with the following strains of Acinetobacter baumannii, antibiotics and M-block alginate oligomer in place of OligoG CF-5/20 as detailed in Table 7. The M-block oligomer is 100% M with a DPn of 15 to 18,

[10] = tested on: Pseudomonas aeruginosa, Klebsiella pneumoniae and Acinetobacter baumannii strains; assay: MIC assay of Example 1, summary over the strains; type: cell-based; details: Example 1, Tables 1 and 2, all strains
MDR Pseudomonas strains = assay: MIC assay of Example 1, summary over the MDR Pseudomonas strains; type: cell-based, Pseudomonas aeruginosa
[11] = tested on: MDR strains of Pseudomonas aeruginosa, Klebsiella pneumoniae, Burkholderia cepacia, Acinetobacter lwoffii, Acinetobacter baumannii and E. coli; assay: MIC assay of Example 2, summary over the strains of Tables 4, 5 and 6; type: cell-based; details: Example 2, Tables 4, 5 and 6
[12] = tested on: Burkholderia cepacia (1322, V23); assay: MIC-assay, Mueller-Hinton broth with G-block alginate, 384-well, OD600
[13] = tested on: Burkholderia cepacia (LMG18941, ATCC-BAA-246); assay: as above
[14] = tested on: Acinetobacter baumannii (MDR ACB, Libya, V4); assay: as above
[15] = Pseudomonas aeruginosa, Table 1, OligoCF-5/20 0G, read-out: MIC
[16] = Pseudomonas aeruginosa, Table 1, OligoCF-5/20 +2% G, read-out: MIC
[17] = Pseudomonas aeruginosa, Table 1, OligoCF-5/20 +6% G, read-out: MIC
[18] = Pseudomonas aeruginosa, Table 1, OligoCF-5/20 +10% G, read-out: MIC

CC[C@H]1OC(=O)[C@H](C)[C@@H](O[C@H]2C[C@@](C)(OC)[C@@H](O)[C@H](C)O2)[C@H](C)[C@@H](O[C@@H]2O[C@H](C)C[C@H](N(C)C)[C@H]2O)[C@](C)(O)C[C@@H](C)CN(C)[C@H](C)[C@@H](O)[C@]1(C)O [Azithromycin]
8^†: MIC ([3]; Table 2, OligoCF-5/20 +10% G) | MIC ([5]; Table 2, OligoCF-5/20 +10% G)
256^†: MIC ([3]; Table 2, OligoCF-5/20 0G)
4^†: MIC ([1]; Table 2, OligoCF-5/20 +10% G) | MIC ([2]; Table 2, OligoCF-5/20 +10% G)
32 µg/mL: MIC [4, 18] | MIC ([5]; Klebsiella pneumoniae, Table 1, OligoCF-5/20 0G, read-out: MIC) | MIC ([7]; Klebsiella pneumoniae, OligoCF-5/20 0G, read-out: MIC) | MIC ([7]; OligoCF-5/20 +6% G) | MIC ([7]; OligoCF-5/20 +10% G) | MIC ([8]; Burkholderia cepacia, Table 6, V23, Experiment 2 (18-03-10), OligoCF-5/20 0G, read-out: MIC) | MIC ([8]; Table 6, V23, Experiment 2 (18-03-10), OligoCF-5/20 +2% G) | MIC ([9]; M-block oligomer 0M) | MIC ([12]; Table 8, G-block (OligoCF-5/20) 2%) | MIC ([12]; Table 8, G-block (OligoCF-5/20) 6%) | MIC ([13]; ATCCBAA246|LMG18941, Table 8, G-block (OligoCF-5/20) 2%)
128 µg/mL: MIC ([1]; Pseudomonas aeruginosa, ATCC15692, Table 1, OligoCF-5/20 0G, read-out: MIC) | MIC ([2]; Pseudomonas aeruginosa, ATCC39324, Table 1, OligoCF-5/20 0G, read-out: MIC) | MIC [3, 16] | MIC ([8]; Burkholderia cepacia, Table 5, V23 MDR Burk cep, OligoCF-5/20 0G, read-out: MIC)
decreasing MICs: change of MIC with increasing amounts of OligoG CF-5/20 [10] | change of MIC with increasing amounts of OligoG CF-5/20 [11]
256 µg/mL: MIC [3, 15]
< 1 µg/mL: MIC ([14]; Table 9, G-block (OligoCF-5/20) 6%) | MIC ([14]; Table 9, G-block (OligoCF-5/20) 10%)
more effective: effectiveness in conjunction with alginate oligomers ([5]; Example 1, KP05 506) | effectiveness when used in combination with the alginate oligomers (MDR Pseudomonas strains)
16 µg/mL: MIC ([1]; Pseudomonas aeruginosa, ATCC15692, Table 1, OligoCF-5/20 +6% G, read-out: MIC) | MIC ([2]; Pseudomonas aeruginosa, ATCC39324, Table 1, OligoCF-5/20 +6% G, read-out: MIC) | MIC ([5]; Klebsiella pneumoniae, Table 1, OligoCF-5/20 +2% G, read-out: MIC) | MIC ([5]; Klebsiella pneumoniae, Table 1, OligoCF-5/20 +6% G, read-out: MIC) | MIC ([6]; Acinetobacter baumannii, OligoCF-5/20 0G, read-out: MIC) | MIC ([8]; Burkholderia cepacia, Table 6, V23, Experiment 3 (19-03-10), OligoCF-5/20 0G, read-out: MIC) | MIC ([8]; Table 6, V23, Experiment 3 (19-03-10), OligoCF-5/20 +2% G) | MIC ([8]; Table 6, V23, Experiment 3 (19-03-10), OligoCF-5/20 +6% G) | MIC ([8]; Table 6, V23, Experiment 3 (19-03-10), OligoCF-5/20 +10% G) | MIC ([9]; M-block oligomer +2% M) | MIC ([9]; M-block oligomer +6% M) | MIC ([9]; M-block oligomer +10% M) | MIC ([13]; ATCCBAA246|LMG18941, Table 8, G-block (OligoCF-5/20) 6%) | MIC ([13]; ATCCBAA246|LMG18941, Table 8, G-block (OligoCF-5/20) 10%) | MIC ([14]; Table 9, G-block (OligoCF-5/20) 0%)
32^† μg/ml: MIC ([8]; Table 6, V23, Experiment 1 (18-03-10), OligoCF-5/20 +10% G)
32^†: MIC ([4]; Table 2, OligoCF-5/20 +10% G) | MIC ([5]; Table 2, OligoCF-5/20 0G)
2 µg/mL: MIC ([14]; Table 9, G-block (OligoCF-5/20) 2%)
0.5^† μg/ml: MIC ([6]; OligoCF-5/20 +6% G)
<0.25 µg/mL: MIC ([6]; OligoCF-5/20 +10% G)
8 µg/mL: MIC [3, 18] | MIC ([5]; Klebsiella pneumoniae, Table 1, OligoCF-5/20 +10% G, read-out: MIC) | MIC ([7]; OligoCF-5/20 +2% G) | MIC ([12]; Table 8, G-block (OligoCF-5/20) 10%)
64 µg/mL: MIC ([1]; Pseudomonas aeruginosa, ATCC15692, Table 1, OligoCF-5/20 +2% G, read-out: MIC) | MIC ([2]; Pseudomonas aeruginosa, ATCC39324, Table 1, OligoCF-5/20 +2% G, read-out: MIC) | MIC [3, 17] | MIC [4, 15] | MIC [4, 16] | MIC [4, 17] | MIC ([4]; Table 2, OligoCF-5/20 +2% G) | MIC ([4]; Table 2, OligoCF-5/20 +6% G) | MIC ([8]; Burkholderia cepacia, Table 6, V23, Experiment 1 (18-03-10), OligoCF-5/20 0G, read-out: MIC) | MIC ([8]; Table 6, V23, Experiment 1 (18-03-10), OligoCF-5/20 +2% G) | MIC ([8]; Table 6, V23, Experiment 1 (18-03-10), OligoCF-5/20 +6% G) | MIC ([12]; Table 8, G-block (OligoCF-5/20) 0%) | MIC ([13]; ATCCBAA246|LMG18941, Table 8, G-block (OligoCF-5/20) 0%)
128^†: MIC ([1]; Table 2, OligoCF-5/20 0G) | MIC ([2]; Table 2, OligoCF-5/20 0G) | MIC ([3]; Table 2, OligoCF-5/20 +2% G)
16^† μg/ml: MIC ([8]; Table 5, V23 MDR Burk cep, OligoCF-5/20 +6% G) | MIC ([8]; Table 6, V23, Experiment 2 (18-03-10), OligoCF-5/20 +6% G) | MIC ([8]; Table 6, V23, Experiment 2 (18-03-10), OligoCF-5/20 +10% G)
16^†: MIC ([1]; Table 2, OligoCF-5/20 +6% G) | MIC ([2]; Table 2, OligoCF-5/20 +6% G) | MIC ([5]; Table 2, OligoCF-5/20 +2% G) | MIC ([5]; Table 2, OligoCF-5/20 +6% G)
4 µg/mL: MIC ([1]; Pseudomonas aeruginosa, ATCC15692, Table 1, OligoCF-5/20 +10% G, read-out: MIC) | MIC ([2]; Pseudomonas aeruginosa, ATCC39324, Table 1, OligoCF-5/20 +10% G, read-out: MIC) | MIC ([8]; Table 5, V23 MDR Burk cep, OligoCF-5/20 +10% G)
64^†: MIC ([1]; Table 2, OligoCF-5/20 +2% G) | MIC ([2]; Table 2, OligoCF-5/20 +2% G) | MIC ([3]; Table 2, OligoCF-5/20 +6% G) | MIC ([4]; Table 2, OligoCF-5/20 0G)
64^† μg/ml: MIC ([8]; Table 5, V23 MDR Burk cep, OligoCF-5/20 +2% G)
4^† μg/ml: MIC ([6]; OligoCF-5/20 +2% G)
